The source of these data is patent publication US9699976B2, “Direct and indirect organogenesis of Jatropha” (TEMASEK LIFE SCIENCES LABORATORY LTD., priority 2012, dated 2017).

In experiment [1] the test system is petiole explant of Jatropha curcas. The settings on record: medium containing 2.27 μM TDZ; Kumar et al. (2011b); cited from earlier work.
Experiment [2] deals with thin sections of petiole, pedicle, peduncle and rachis explants of Jatropha curcas. Description: Shoot bud induction directly from thin sections of explants (direct organogenesis). The format is cell-based. The settings on record: only BA and Kn alone in the medium. How it is done: The petiole from 2nd to 4th leaf and pedicle, peduncle and rachis from inflorescence before the onset of flowering were selected as explant for the present study. Explants were initially washed in running tap water for 5 min and followed by wash in chlorohexidine surgical wash (two drops in 100 ml of distilled water) for 10 min to remove the adhering particles on the surface. The explants were surface sterilized in 0.1% HgCl2 for 10 min followed by 3 washes using sterilized distilled water.
The chemicals used in the present study were purchased from Duchefa Biochemie, Haarlem, The Netherlands and Sigma Aldrich, Inc., St Louis, USA. The culture media composed of MS basal salts, B5 vitamins, 3% sucrose and 0.8% agar as solidifying agent. The pH of the media is adjusted to 5.6-5.8 before autoclaving. All the cultures were incubated at 25±2° C. with 16 hr light/8 hr dark photoperiod conditions at a light intensity of 150 μEm^−2s^−1. The culture conditions are same throughout the stages of organogenesis.
The thin sections of all the explants (petiole, pedicle, peduncle and rachis) and the calli initiated from different explants (petiole, pedicle, […]; […]).
Thin sections of explants placed on shoot induction medium expanded and bended towards up and started to produce adventitious buds from the explants within 2 weeks. […]

In experiment [3] the test system is elongated shoots of Jatropha curcas. The experiment is described as follows: Maturation of elongated shoots on maturation medium. The format is cell-based. The note with it: BA present in maturation medium; abnormal shoot production and in vitro flowering. How it is done: The chemicals used in the present study were purchased from Duchefa Biochemie, Haarlem, The Netherlands and Sigma Aldrich, Inc., St Louis, USA. The culture media composed of MS basal salts, B5 vitamins, 3% sucrose and 0.8% agar as solidifying agent. The pH of the media is adjusted to 5.6-5.8 before autoclaving. All the cultures were incubated at 25±2° C. with 16 hr light/8 hr dark photoperiod conditions at a light intensity of 150 μEm^−2s^−1. The culture conditions are same throughout the stages of organogenesis. […] Elongated shoots were separated from the clump and cultured on the Maturation medium containing Kn (1.17 μM), AdSO4 (135.75 μM), GA3 (0.73 μM) IBA (0.49 μM) and casein hydrolysate (100 mg/l). Well elongated shoots were separated carefully from the clumps and transferred to maturation medium to induce physiological maturity. Most of the shoots culture in the maturation medium reached maturity within 3 weeks whereas some shoots still need additional 3 weeks and were cultured in the same medium to bring physiological maturity.

As for `O=C(Nc1ccccc1)Nc1cnns1` [TDZ, thidiazuron], in experiment [1], the “average shoots per 0.5 cm length petiole explant” value is recorded as 4.98 shoots per explant and the “response with petiole explant” value is reported as 57.61%.

Consider `c1coc(CNc2ncnc3[nH]cnc23)c1` [Kn, kinetin], for which, in experiment [2], the “effect on shoot bud induction from the tested explants” value is “no effect”.

Take `c1ccc(CNc2ncnc3nc[nH]c23)cc1` [BA, 6-benzylaminopurine]: the “effect on shoot bud induction from the tested explants” value in experiment [2] is listed as “no effect”. The “effect of presence in maturation medium on shoot maturation” value in experiment [3] is “hindered maturation”.
